Test results published in article PMC9243654 (Frontiers in Nutrition, 2022).
Where two headings read alike, the source gives them in different places.

Tests used:
in vitro = conditions: for PAMPA-BBB log Pe (cm s−1): pH 7.4
Experimental: The PAMPA-BBB assay was conducted according to the methodology followed by Di et al., with some modifications as described below ([15]). First, the BBB solution was prepared by dissolving 8 mg of PBL and 4 mg of cholesterol in 600 μl of n-dodecane. The initial donor solution was prepared by mixing 1 ml of extract (10 mg ml^−1 in EtOH) with 1 ml of buffer (PBS, pH = 7.4, 10 mM). The filter membrane of the donor plate was carefully coated with 5 μl of BBB solution. The acceptor plate was filled with 350 μl of buffer, and the donor plate was carefully assembled over the acceptor plate like a “sandwich.” Finally, the donor plate was filled with 350 μl of donor solution, covered, and incubated for 4 h at 37°C in the dark. After incubation time, 300 μl of the solution was taken from both plates, transferred to separate vials, and dried in the SpeedVac system at 40°C and 13 mbar pressure. Dried acceptor and donor solution were dissolved in 50 μl of pure EtOH before subjecting to UHPLC-Q-TOF-MS analysis. Permeability across in vitro BBB of the bioactive compound was measured according to Equation (1) ([25]), with some modifications in concentration rates.
(1) Pe=-ln[1-CA(t)/Ce]/A^*(1/VD+1/VA)^*t
Cequilibrium was calculated according to the following equation ([2]):
(2) Cequilibrium=[CD(t)*VD+CA(t)*VA]/(VD+VA)

[1] = ref PubChem database, cited from earlier work
[2] = compound within LPLE (Nothofagus pumilio, lenga PLE extract), classes based on Könczöl et al.
[3] = compounds identified in LPLE extract
[4] = PAMPA, pH 7.4, PAMPA-BBB log Pe (cm s−1)
[5] = PAMPA, pH 7.4, PAMPA-BBB log Pe, compound within LPLE (Nothofagus pumilio, lenga PLE extract), N.D = not detected in acceptor
[6] = compounds of RSFE extract, octanol-water partition coefficient

CC(CC(=O)C[C@@H](C)[C@H]1C[C@H](O)[C@@]2(C)C3=C(C(=O)C[C@]12C)[C@@]1(C)CC[C@H](O)C(C)(C)[C@@H]1CC3)C(=O)O (stereo partly drawn) [Ganolucidic acid B]
Cross BBB potential (in vitro; compound within ASFE extract): - | Cross BBB potential (in vitro; [2]): - | Log P [1, 3]: 3.8 | Log P ([1]; compounds of ASFE extract): 3.8

CC(CC(=O)CC(C)C1CC(O)C2(C)C3=C(C(=O)CC12C)C1(C)CCC(O)C(C)(CO)C1CC3)C(=O)O (stereo not drawn) [Ganolucidic acid C]
Cross BBB potential (in vitro; compound within ASFE extract): - | Cross BBB potential (in vitro; [2]): - | Log P [1, 3]: 3.1 | Log P ([1]; compounds of ASFE extract): 3.1

COc1cc(/C=C/C(=O)O)cc(OC)c1O [Sinapic acid]
Cross BBB potential (in vitro; compound within ASFE extract): - | Cross BBB potential (in vitro; compound within KD extract): - | Cross BBB potential (in vitro; compound within T33 extract): - | Log P [1, 3]: 1.5 | Log P ([1]; compounds of ASFE extract): 1.5 | Log P ([1]; compounds of KD extract): 1.5 | Log P ([1]; compounds of T33 extract): 1.5

C[C@H]1[C@H](C)CC[C@]2(C(=O)O)CC[C@]3(C)C(=CC[C@@H]4[C@@]5(C)C[C@@H](O)[C@H](O)C(C)(C)[C@@H]5CC[C@]43C)[C@H]12 [Corosolic acid]
Cross BBB potential (in vitro; PAMPA): ++ | Papp at 4 h (in vitro; [4]): 6.03 ×10⁻⁶ cm/s | Papp at 4 h (in vitro; [5]): 8.51 ×10⁻⁶ cm/s | Log P [1, 3]: 6.4

COc1cc(/C=C/C(=O)OC(C(=O)O)C(O)C(=O)O)ccc1O (stereo not drawn) [Fertaric acid]
Cross BBB potential (in vitro; compound within ASFE extract): - | Cross BBB potential (in vitro; [2]): - | Log P [1, 3]: 0.4 | Log P ([1]; compounds of ASFE extract): 0.4

COc1cc(/C=C/C=O)cc(OC)c1O [Sinapaldehyde]
Cross BBB potential (in vitro; compound within ASFE extract): - | Log P [1, 3]: 1.4 | Log P ([1]; compounds of ASFE extract): 1.4

O.Oc1cc(O)c2c(c1)O[C@H](c1ccc(O)c(O)c1)[C@@H](O)C2 [Catechin]
Cross BBB potential (in vitro; PAMPA): - | Log P [1, 3]: 0.4 | Log P ([1]; compounds of ASFE extract): 0.4

Oc1cccc(O)c1O [Pyrogallol]
Cross BBB potential (in vitro; PAMPA): - | Log P [1, 3]: 0.5

CC(C)c1cc2c(cc1O)C1(C)CCC(=O)C(C)(C)C1CC2 (stereo not drawn) [Hinokione]
Cross BBB potential (in vitro; compound within RSFE extract): - | Log P [1, 6]: 4.9

COc1cc2oc(-c3ccc(O)cc3)cc(=O)c2c(O)c1OC [Crisimaritin]
Cross BBB potential (in vitro; PAMPA): +++ | PAMPA-BBB log Pe (cm s−1) (in vitro; PAMPA, 4 h): −4.36 cm s−1 | Log P [1, 6]: 2.0

O=c1ccc2cc(O[C@@H]3O[C@H](CO)[C@@H](O)[C@H](O)[C@H]3O)c(O)cc2o1 [Esculin]
Cross BBB potential (in vitro; PAMPA): +++ (key: -: not detected in acceptor; +: log Pe > −6.5; ++: log Pe > −5.5; +++: log Pe > −4.5) | Papp (in vitro; [4]): 50.1 ×10⁻⁶ cm/s | Log P [1, 6]: −0.6

C[C@H]1O[C@H](O[C@H]2CC[C@]3(C=O)[C@H]4CC[C@]5(C)[C@@H](c6ccc(=O)oc6)CC[C@]5(O)[C@@H]4CC[C@]3(O)C2)[C@H](O)[C@@H](O)[C@@H]1O [Kalanchoside A]
Cross BBB potential (in vitro; compound within KD extract): - | Log P ([1]; compounds of KD extract): −0.1

COc1ccc(-c2cc(=O)c3c(O)cc(OC)cc3o2)cc1 [4-Methoxytectochrysin]
Cross BBB potential (in vitro; PAMPA): +++ | PAMPA-BBB log Pe (cm s−1) (in vitro; PAMPA, 4 h): −4.22 cm s−1 | Log P [1, 6]: 3.3

CC(C)c1cc2c(c(O)c1O)C(=O)C1CCCC(C)(C)C1CC2 (stereo not drawn) [Rosmaridiphenol]
Cross BBB potential (in vitro; PAMPA): + | PAMPA-BBB log Pe (cm s−1) (in vitro; PAMPA, 4 h): −5.55 cm s−1 | Log P [1, 6]: 5.9

Methydihydrojasmonic acid
Cross BBB potential (in vitro; PAMPA): +++ | PAMPA-BBB log Pe (cm s−1) (in vitro; PAMPA, 4 h): −3.96 cm s−1 | Log P [1, 6]: 1.6

C[C@@H]1C(=O)C[C@@H](C(C)(C)O)O[C@@H]2C[C@@]3(C)[C@@H]4CC=C5[C@@H](C=C(O)C(=O)C5(C)C)[C@]4(C)C(=O)C[C@]3(C)[C@@H]12 [Cucurbitacin S]
Cross BBB potential (in vitro; [2]): - | Log P [1, 3]: 3.2 | Log P ([1]; compounds of ASFE extract): 3.2

Resibufagin
Cross BBB potential (in vitro; compound within KD extract): - | Log P ([1]; compounds of KD extract): 2.4

CC/C=C/CC(O)C(O)/C=C/C(O)CCCCCCCC(=O)O (stereo not drawn)
Cross BBB potential (in vitro; PAMPA): +++ | PAMPA-BBB log Pe (cm s−1) (in vitro; PAMPA, 4 h): −3.73 cm s−1 | Log P [1, 6]: 2.6

Notohamosine B
Cross BBB potential (in vitro; PAMPA): ++ | PAMPA-BBB log Pe (cm s−1) (in vitro; PAMPA, 4 h): −4.62 cm s−1 | Log P [1, 6]: 5.6

C[C@]12C[C@@H](O)[C@H]3[C@@H](CC[C@]4(O)C[C@@H](O)CC[C@]34CO)[C@@]1(O)CC[C@@H]2c1ccc(=O)oc1 [11α,19-dihydroxytelocinobufagin]
Cross BBB potential (in vitro; compound within KD extract): - | Log P ([1]; compounds of KD extract): 3.63

C=C(C)[C@@H]1CC[C@]2(C(=O)O)CC[C@]3(C)[C@H](CC[C@@H]4[C@@]5(C)CC[C@H](O)C(C)(C)[C@@H]5CC[C@]43C)[C@@H]12 [Betulinic acid]
Cross BBB potential (in vitro; PAMPA): + | Papp at 4 h (in vitro; [4]): 0.229 ×10⁻⁶ cm/s | Log P [1, 6]: 8.2

O=C(O)CCCCCCCCCCCCCCC(=O)O [Hexadecanedioic acid]
Cross BBB potential (in vitro; compound within ASFE extract): - | Cross BBB potential (in vitro; [2]): - | Log P [1, 3]: 5.4 | Log P ([1]; compounds of ASFE extract): 5.4

C=C(C)[C@@H]1CC[C@]2(C(=O)O)CC[C@]3(C)[C@H](CC[C@@H]4[C@@]5(C)CC[C@H](O)[C@@](C)(CO)[C@@H]5CC[C@]43C)[C@@H]12 [Anemosapogenin]
Cross BBB potential (in vitro; PAMPA): ++ (key: -: not detected in acceptor; +: log Pe > −6.5; ++: log Pe > −5.5; +++: log Pe > −4.5) | PAMPA-BBB log Pe (cm s−1) (in vitro; PAMPA): −5.26 cm s−1 | Log P [1, 6]: 7.5

CC(C)c1cc2c(c(O)c1O)[C@@]13CCCC(C)(C)[C@@H]1C[C@@H]2OC3 [20-Deoxocarnosol]
Cross BBB potential (in vitro; compound within RSFE extract): - | Log P [1, 6]: 4.6

COc1cc(-c2oc3cc(O)cc(O)c3c(=O)c2O[C@@H]2O[C@H](CO)[C@@H](O)[C@H](O)[C@H]2O)ccc1O [Isorhamnetin-3-O-glucoside]
Cross BBB potential (in vitro; compound within RSFE extract): - | Log P [1, 6]: 0.7

C[C@@]12O[C@H]3C[C@@H](O1)[C@]1(C=O)[C@H]4[C@H](O)C[C@]5(C)[C@@H](c6ccc(=O)oc6)CC[C@]5(O)[C@@H]4CC[C@@]1(C3)O2 [Bryophyllin A]
Cross BBB potential (in vitro; compound within KD extract): - | Log P ([1]; compounds of KD extract): 0.6

COc1c(O)cc2oc(-c3ccc(O)c(O)c3)cc(=O)c2c1O [Eupafolin]
Papp at 4 h (in vitro; PAMPA, pH 7.4, PAMPA-BBB log Pe (cm s−1), compound within KD extract, 4 h, 37°C, PBS pH 7.4): 339 ×10⁻⁶ cm/s | Cross BBB potential (in vitro; compound within KD extract): +++ (log Pe > −4.5) | Log P ([1]; compounds of KD extract): 1.4

O=c1c(O)c(-c2ccc(O)c(O)c2)oc2cc(O)cc(O)c12 [Quercetin, reference compound]
Papp at 4 h (in vitro; PAMPA, pH 7.4, LogPe, permeability of BBB to quercetin, present study): 0.0955 ×10⁻⁶ cm/s | Papp at 4 h (in vitro; [5]): 0.0245 ×10⁻⁶ cm/s | Log P [1, 3]: 1.5 | Log P ([1]; compounds of ASFE extract): 1.5 | Log P ([1]; compounds of KD extract): 1.5

O=C(/C=C/c1ccc(O)cc1)O[C@@H](C(=O)O)[C@@H](O)C(=O)O [Coutaric acid]
Cross BBB potential (in vitro; compound within ASFE extract): - | Cross BBB potential (in vitro; [2]): - | Log P [1, 3]: 0.4 | Log P ([1]; compounds of ASFE extract): 0.4

CC(=O)O[C@H]1C[C@H](C)O[C@@H](O[C@H]2CC[C@]3(C=O)[C@H]4[C@H](O)C(=O)[C@]5(C)[C@@H](c6ccc(=O)oc6)CC[C@]5(O)[C@@H]4CC[C@]3(O)C2)[C@H]1O [Kalantuboside A]
Cross BBB potential (in vitro; compound within KD extract): - | Log P ([1]; compounds of KD extract): 7.5

CC(C)c1cc2c(c(O)c1O)[C@@]13CCCC(C)(C)[C@@H]1[C@H](OC3=O)C2=O [Galdosol]
Cross BBB potential (in vitro; PAMPA): +++ | PAMPA-BBB log Pe (cm s−1) (in vitro; PAMPA, 4 h): −4.41 cm s−1 | Log P [1, 6]: 4

O=C(/C=C/c1ccc(O)c(O)c1)c1ccc(O)cc1O [Butein]
Papp at 4 h (in vitro; PAMPA, pH 7.4, PAMPA-BBB log Pe (cm s−1), compound within ASFE extract, 4 h, 37°C, PBS pH 7.4): 2.19 ×10⁻⁶ cm/s | Papp at 4 h (in vitro; [5]): 16.6 ×10⁻⁶ cm/s | Cross BBB potential (in vitro; compound within ASFE extract): + (log Pe > −6.5) | Cross BBB potential (in vitro; [2]): ++ (log Pe > −5.5) | Log P [1, 3]: 2.8 | Log P ([1]; compounds of ASFE extract): 2.8
